The IC50 is the concentration that gives 50% inhibition. Read a high IC50 as a need for much substance.

The values that follow come from ChEMBL document CHEMBL2429776, “Cyclic 3-alkyl pyridinium alkaloid monomers from a New Zealand Haliclona sp. marine sponge” (J Nat Prod, 2013).

Structures are written as SMILES. Calls of active or inactive are those of the source. The rule behind the calls is not given here.

Common to all, as to format: functional, organism-based
One experiment relates to Saccharomyces cerevisiae. Put plainly: Antifungal activity against Saccharomyces cerevisiae YCG 117 after 18 hrs. The settings on record: YCG 117, 18 h.
For experiment [1], the system named is Enterococcus faecalis. Put plainly: Antimicrobial activity against Enterococcus faecalis ATCC 19433 at 8 ug after 24 hrs by disk-diffusion assay. (Agar diffusion results depend on both activity and mobility in agar.)
Experiment [2] relates to Enterococcus faecalis. Put plainly: Antimicrobial activity against Enterococcus faecalis ATCC 19433 at 2 ug after 24 hrs by disk-diffusion assay.
For experiment [3], the system named is Candida albicans. Put plainly: Antifungal activity against Candida albicans ATCC 10231 at 8 ug after 24 hrs by disk-diffusion assay.
Experiment [4] concerns Candida albicans. Put plainly: Antifungal activity against Candida albicans ATCC 10231 at 20 ug after 24 hrs by disk-diffusion assay.
Experiment [5] has as its system Enterococcus faecalis. Put plainly: Antimicrobial activity against Enterococcus faecalis ATCC 19433 at 20 ug after 24 hrs by disk-diffusion assay.
Experiment [6] relates to Candida albicans. Put plainly: Antifungal activity against Candida albicans ATCC 10231 at 2 ug after 24 hrs by disk-diffusion assay.

Turning to `C1=C\CCCCCC[n+]2cccc(c2)CCCCCC/1`, in the experiment on Saccharomyces cerevisiae, half-maximal inhibition (IC50) was put at 1.5 µg/mL. Moreover, the outcome in the experiment with Enterococcus faecalis [1], in the experiment on Enterococcus faecalis [2], in the experiment with Candida albicans [3], with Candida albicans [4], with Enterococcus faecalis [5] and in the experiment with Candida albicans [6] was inactive.

In turn, `C1=C\CCCCC[n+]2cccc(c2)CCCCCC/1` came in with an IC50 in the experiment on Saccharomyces cerevisiae of 1.5 µg/mL. The result with Enterococcus faecalis [1], in the experiment with Enterococcus faecalis [2], in the experiment on Candida albicans [3], in the experiment with Candida albicans [4], in the experiment with Enterococcus faecalis [5] and in the experiment on Candida albicans [6] was inactive.

On to `c1cc2c[n+](c1)CCCCCCCCCCCCC2`, for which half-maximal inhibition with Saccharomyces cerevisiae (IC50) required 1.5 µg/mL. Moreover, the result in the experiment with Enterococcus faecalis [1], in the experiment on Enterococcus faecalis [2], in the experiment with Candida albicans [3], in the experiment with Candida albicans [4], in the experiment with Enterococcus faecalis [5] and in the experiment with Candida albicans [6] was inactive.
